# PubChem BioAssay (NCI)
#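 Interpolation was linear, between the two tested concentrations surrounding the appropriate level; five concentrations were tested over 48 hours in 96-well plates. GI50 is the concentration that inhibits growth by half. TGI marks complete inhibition of growth.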
# What was measured:
# Experiment in all cases: growth of human tumour cells (NCI), 48 h
# [1] = test system: 786-0 renal
# [2] = test system: A498 renal
# [3] = test system: A549 NSCLC
# [4] = test system: ACHN renal
# [5] = test system: BT-549 breast
# [6] = test system: CAKI-1 renal
# [7] = test system: CCRF-CEM leukemia
# [8] = test system: COLO 205 colon
# [9] = test system: DU-145 prostate
# [10] = test system: EKVX NSCLC
# [11] = test system: HCC-2998 colon
# [12] = test system: HCT-116 colon
# [13] = test system: HCT-15 colon
# [14] = test system: HL-60(TB) leukemia
# [15] = test system: HOP-62 NSCLC
# [16] = test system: HOP-92 NSCLC
# [17] = test system: HS 578T breast
# [18] = test system: HT29 colon
# [19] = test system: IGROV1 ovarian
# [20] = test system: K-562 leukemia
# [21] = test system: KM12 colon
# [22] = test system: LOX IMVI melanoma
# [23] = test system: M14 melanoma
# [24] = test system: MALME-3M melanoma
# [25] = test system: MCF7 breast
# [26] = test system: MDA-MB-231 breast
# [27] = test system: MDA-MB-435
# [28] = test system: MOLT-4 leukemia
# [29] = test system: NCI-H226 lung
# [30] = test system: NCI-H23 lung
# [31] = test system: NCI-H460 lung
# [32] = test system: NCI-H522 lung
# [33] = test system: NCI/ADR-RES ovarian
# [34] = test system: OVCAR-3 ovarian
# [35] = test system: OVCAR-4 ovarian
# [36] = test system: OVCAR-5 ovarian
# [37] = test system: OVCAR-8 ovarian
# [38] = test system: PC-3 prostate
# [39] = test system: RPMI-8226 leukemia
# [40] = test system: RXF 393 renal
# [41] = test system: SF-268 CNS
# [42] = test system: SF-295 CNS
# [43] = test system: SF-539 CNS
# [44] = test system: SK-MEL-28 melanoma
# [45] = test system: SK-MEL-5 melanoma
# [46] = test system: SK-OV-3 ovarian
# [47] = test system: SN12C renal
# [48] = test system: SNB-19 CNS
# [49] = test system: SNB-75 CNS
# [50] = test system: SR leukemia
# [51] = test system: SW-620 colon
# [52] = test system: T-47D breast
# [53] = test system: TK-10 renal
# [54] = test system: U251 CNS
# [55] = test system: UACC-257 melanoma
# [56] = test system: UACC-62 melanoma
# [57] = test system: UO-31 renal
# [58] = test system: SK-MEL-2 melanoma
compound,measurement,setting,value
O=C(N[C@@H](C[Se][Se]C[C@H](NC(=O)c1ccc(Br)cc1F)C(=O)O)C(=O)O)c1ccc(Br)cc1F,GI50,[1],> 100 µM
same,TGI,[1],> 100 µM
same,GI50,[2],> 100 µM
same,TGI,[2],> 100 µM
same,GI50,[3],> 100 µM
same,TGI,[3],> 100 µM
same,GI50,[4],> 100 µM
same,TGI,[4],> 100 µM
same,GI50,[5],> 100 µM
same,TGI,[5],> 100 µM
same,GI50,[6],> 100 µM
same,TGI,[6],> 100 µM
same,GI50,[7],> 100 µM
same,TGI,[7],> 100 µM
same,GI50,[8],> 100 µM
same,TGI,[8],> 100 µM
same,GI50,[9],> 100 µM
same,TGI,[9],> 100 µM
same,GI50,[10],> 100 µM
same,TGI,[10],> 100 µM
same,GI50,[11],> 100 µM
same,TGI,[11],> 100 µM
same,GI50,[12],> 100 µM
same,TGI,[12],> 100 µM
same,GI50,[13],> 100 µM
same,TGI,[13],> 100 µM
same,GI50,[14],> 100 µM
same,TGI,[14],> 100 µM
same,GI50,[15],> 100 µM
same,TGI,[15],> 100 µM
same,GI50,[16],> 100 µM
same,TGI,[16],> 100 µM
same,GI50,[17],> 100 µM
same,TGI,[17],> 100 µM
same,GI50,[18],> 100 µM
same,TGI,[18],> 100 µM
same,GI50,[19],> 100 µM
same,TGI,[19],> 100 µM
same,GI50,[20],> 100 µM
same,TGI,[20],> 100 µM
same,GI50,[21],> 100 µM
same,TGI,[21],> 100 µM
same,GI50,[22],> 100 µM
same,TGI,[22],> 100 µM
same,GI50,[23],> 100 µM
same,TGI,[23],> 100 µM
same,GI50,[24],> 100 µM
same,TGI,[24],> 100 µM
same,GI50,[25],60.8 µM
same,TGI,[25],> 100 µM
same,GI50,[26],> 100 µM
same,TGI,[26],> 100 µM
same,GI50,[27],> 100 µM
same,TGI,[27],> 100 µM
same,GI50,[28],> 100 µM
same,TGI,[28],> 100 µM
same,GI50,[29],> 100 µM
same,TGI,[29],> 100 µM
same,GI50,[30],> 100 µM
same,TGI,[30],> 100 µM
same,GI50,[31],> 100 µM
same,TGI,[31],> 100 µM
same,GI50,[32],> 100 µM
same,TGI,[32],> 100 µM
same,GI50,[33],> 100 µM
same,TGI,[33],> 100 µM
same,GI50,[34],> 100 µM
same,TGI,[34],> 100 µM
same,GI50,[35],> 100 µM
same,TGI,[35],> 100 µM
same,GI50,[36],> 100 µM
same,TGI,[36],> 100 µM
same,GI50,[37],> 100 µM
same,TGI,[37],> 100 µM
same,GI50,[38],> 100 µM
same,TGI,[38],> 100 µM
same,GI50,[39],> 100 µM
same,TGI,[39],> 100 µM
same,GI50,[40],> 100 µM
same,TGI,[40],> 100 µM
same,GI50,[41],> 100 µM
same,TGI,[41],> 100 µM
same,GI50,[42],> 100 µM
same,TGI,[42],> 100 µM
same,GI50,[43],> 100 µM
same,TGI,[43],> 100 µM
same,GI50,[44],> 100 µM
same,TGI,[44],> 100 µM
same,GI50,[45],> 100 µM
same,TGI,[45],> 100 µM
same,GI50,[46],> 100 µM
same,TGI,[46],> 100 µM
same,GI50,[47],> 100 µM
same,TGI,[47],> 100 µM
same,GI50,[48],> 100 µM
same,TGI,[48],> 100 µM
same,GI50,[49],> 100 µM
same,TGI,[49],> 100 µM
same,GI50,[50],95.4 µM
same,TGI,[50],> 100 µM
same,GI50,[51],> 100 µM
same,TGI,[51],> 100 µM
same,GI50,[52],> 100 µM
same,TGI,[52],> 100 µM
same,GI50,[53],> 100 µM
same,TGI,[53],> 100 µM
same,GI50,[54],> 100 µM
same,TGI,[54],> 100 µM
same,GI50,[55],> 100 µM
same,TGI,[55],> 100 µM
same,GI50,[56],> 100 µM
same,TGI,[56],> 100 µM
same,GI50,[57],> 100 µM
same,TGI,[57],> 100 µM
CO[C@]12C[C@H](CNC(=O)c3ccc[nH]3)O[C@H]1NC(=O)N2,TGI,[1],> 100 µM
same,TGI,[2],> 100 µM
same,TGI,[3],> 100 µM
same,TGI,[4],> 100 µM
same,TGI,[5],> 100 µM
same,TGI,[6],> 100 µM
same,TGI,[7],> 100 µM
same,TGI,[8],> 100 µM
same,TGI,[9],> 100 µM
same,TGI,[10],> 100 µM
same,TGI,[12],> 100 µM
same,TGI,[13],> 100 µM
same,TGI,[14],> 100 µM
same,TGI,[15],> 100 µM
same,TGI,[16],> 100 µM
same,TGI,[17],> 100 µM
same,TGI,[18],> 100 µM
same,TGI,[19],> 100 µM
same,TGI,[20],> 100 µM
same,TGI,[21],> 100 µM
same,TGI,[22],> 100 µM
same,TGI,[23],> 100 µM
same,TGI,[24],> 100 µM
same,TGI,[25],> 100 µM
same,TGI,[26],> 100 µM
same,TGI,[27],> 100 µM
same,TGI,[29],> 100 µM
same,TGI,[30],> 100 µM
same,TGI,[31],> 100 µM
same,TGI,[32],> 100 µM
same,TGI,[33],> 100 µM
same,TGI,[34],> 100 µM
same,TGI,[36],> 100 µM
same,TGI,[37],> 100 µM
same,TGI,[38],> 100 µM
same,TGI,[39],> 100 µM
same,TGI,[41],> 100 µM
same,TGI,[42],> 100 µM
same,TGI,[43],> 100 µM
same,TGI,[58],> 100 µM
same,TGI,[45],> 100 µM
same,TGI,[46],> 100 µM
same,TGI,[47],> 100 µM
same,TGI,[48],> 100 µM
same,TGI,[50],> 100 µM
same,TGI,[51],> 100 µM
same,TGI,[52],> 100 µM
same,TGI,[53],> 100 µM
same,TGI,[54],> 100 µM
same,TGI,[55],> 100 µM
same,TGI,[56],> 100 µM
same,TGI,[57],> 100 µM
